89 molecules from a melting point compilation (Tetko et al.; mined from patent text by program, amines drawn as free bases though some values may be those of a salt) can be followed below.

Usually melting point stands for the temperature, or range, at which the solid turns liquid. With `CC12CC(=O)C3C(CCC4CC(O)CCC43C)C1CCC2C(=O)CCN1C(=O)c2ccccc2C1=O` (centres undefined), the melting point lay in the range of 187 to 189 °C.
In the case of `N#Cc1ccc(Oc2ccc(CC(=O)O)cc2)cc1`, the melting point lay in the range of 126 to 128 °C.
The molecule `CNc1nc(C)c(C(=O)c2ccc(N)c([N+](=O)[O-])c2)s1` gave a melting point of 260 to 261 °C.
`Nc1ncc(-c2ccc(=O)[nH]n2)c(-c2ccccc2)n1` displayed a melting point above 280 °C.
The result for `CC1(C)CCCC(C)(C)N1Cc1ccc2cc(NC(=O)N3CCC(c4ccc(Cl)cc4)CC3)ccc2n1` reads 203 to 204 °C; that for `COC(=O)[C@H](Cc1ccccc1)NC(=O)N(Cc1ccccc1)NC(=O)OC(C)(C)C`, 71 to 73 °C; that for `CC(O)(CCN)c1ccc(-c2ccc(F)cc2)cc1` (centres undefined), 144 to 146 °C.
Take `O=C(O)COc1ccc(OCC(=O)O)c(NC(=O)c2ccc(OCCCCc3ccccc3)cc2)c1`: the melting point was 211 to 214 °C.
Turning to `CCCCCOC(=O)C(N)C=CCP(=O)(O)O` (centres undefined), the melting point is 160 to 161 °C.
For the molecule `CC(=O)N(C)Nc1ccnc2c(NC(=O)c3c(Cl)cccc3Cl)cccc12`, the melting point is 215 °C.
In turn, `O=C(O)COc1ccc2cc(-c3cnc(Cc4ccc5ccccc5c4)o3)ccc2c1` gave a melting point of 258 to 260 °C.
In turn, `CCC(O)(Cn1cncn1)C(C)(C)Cc1ccc(Cl)cc1` (centres undefined) gave a melting point of 124 to 125 °C.
`CC(C)(C)OC(=O)N1CCN(C(=O)Nc2ccccc2)CC1` showed a melting point of 168 to 169 °C.
`O=C1c2ccccc2-c2cc(O)cc3cccc1c23` gave a melting point of 297 to 298 °C.
With `Cc1cc(=O)c2ccc(OCC(O)CNC(C)C)cc2o1` (centres undefined), the melting point was 80 to 82 °C.
Consider `NC(=O)Cc1ccc2c(c1)C(=O)Cc1cccnc1O2`, for which the melting point is 214 to 217 °C.
The value for `Cc1c(C)c([N+](=O)[O-])c(C)c2c1OC(C)(C)C2c1ccc(F)cc1` (centres undefined) was 94 to 95 °C; that for `O=C1C(c2cccc(O)c2)CCCCN1Cc1ccccc1` (centres undefined) was 160 to 166 °C.
The molecule `O=C(Cc1ccc(F)cc1F)c1ccc(Cl)nc1` registered a melting point of 93 to 95 °C.
Take `CCC(=O)c1c(OC)cccc1OC`: the melting point lay within 43 to 45 °C.
In the case of `Cc1c(=O)[nH]c(=O)n2cc(C(=O)O)sc12`, the melting point was above 205 °C.
Regarding `O=C1CCC2=C1C(c1ccc(Br)s1)C1=C(CCS1)N2` (centres undefined), the melting point lay within 246 to 247 °C.
Regarding `Cc1cc(=O)oc2cc(NC(=O)C3C(=O)c4ccccc4S(=O)(=O)N3C)ccc12` (centres undefined), the melting point was above 285 °C.
Molecule `O=C(Cn1c(-c2ccccc2)ccc(NC(=O)OCc2ccccc2)c1=O)NC(Cc1ccccc1)C(=O)C(F)(F)F` (centres undefined) displayed a melting point of 178 to 181 °C.
`Nc1ccc(CS(=O)(=O)CCO)c(CS(=O)(=O)CCO)c1` displayed a melting point of 168 to 171 °C.
Turning to `Nc1nc(O)c2cc(C=Cc3ccc(C(=O)O)cc3)cnc2n1`, the melting point is above 250 °C.
In turn, `Cc1nc2cccc(OCc3ccccc3)c2[nH]1` came in with a melting point of 119 to 121 °C.
The molecule `Cc1cccc(-n2nc(C)c3c(=O)c4cc(F)c(F)cc4[nH]c32)n1` had a melting point of 301 to 302 °C.
In the case of `CN1C(=O)CCC2(C)c3ccc(Sc4ccccn4)cc3CCC12` (single isomer, unassigned; (+)), the melting point is 174 to 176 °C.
`Cc1nc2ncnn2c2c1CCN2CC(C)C` displayed a melting point of 143 to 145 °C.
In turn, `Oc1ccc2c(c1)CCCC(c1ccccc1)=C2c1ccc(OCCCCSCc2ccccn2)cc1` came in with a melting point of 155 °C.
The molecule `CC1(C)CC(=O)C2=C(C1)NC1=C(C(=O)CC(C)(C)C1)C2c1ccc(Cl)cc1Cl` gave a melting point above 300 °C.
`CC1(C)CCC(Cc2ccc(Cl)cc2)C1(O)CO` (centres undefined) had a melting point of 103 to 104 °C.
As to `O=C1C2CCCN2c2ncccc2N1Cc1ccncc1` (centres undefined), the melting point lay within 262 to 265 °C.
`C/C(=C\c1ccc(OCC(=O)O)cc1)c1ccc2c(c1)C(C)(C)CCC2(C)C` came in with a melting point of 152 to 154 °C.
`CCCCOC(=O)C1CC(n2cnc3c(N)ncnc32)C(O)C1O` (centres undefined) displayed a melting point of 173 to 175 °C.
The molecule `CC(C)c1ccc(-c2ccc(-c3ccccc3)s2)s1` gave a melting point of 104 to 106 °C.
The value for `CCN(CC)CCOC(=O)C1=C(C)Nc2ccnc(OC(C)C)c2C1c1ccccc1C(F)(F)F` (centres undefined) was 198 to 200 °C; that for `COc1ccc(S(=O)(=O)c2ccccc2)cc1S(=O)(=O)NC1CCOCC1` was 176 to 178 °C; that for `CCOC(=O)c1ccccc1-n1c(=O)[nH]c2ccccc2c1=O` was 196 to 197 °C.
The result for `O=C1N(c2cc(Cl)nc(Cl)c2)C(=O)C2(Cc3ccc(O)cc3)CCCN12` (centres undefined) reads 165 °C; that for `O=C(O)CCC(=O)Nc1cccc2ccccc12`, 167 to 169 °C; that for `Clc1ccccc1CSc1nnc(-c2ccc3c(c2)CCO3)o1`, 140 to 141 °C.
As to `C=CCOC(=O)CC(=O)CCN1C(=O)c2ccccc2C1=O`, the melting point lay within 53 to 55 °C.
As for `CCOC(=O)C1=C(COCCN=[N+]=[N-])NC(C)=C(C(=O)OC)C1c1ccccc1Cl` (centres undefined), the melting point lay in the range of 145 to 146 °C.
`O=S(=O)(NCCO)c1ccc(Nc2nc(OCC3CCCCC3)c3nc[nH]c3n2)cc1` yielded a melting point of 158 to 160 °C.
On to `CCCCCCCCNC(=O)/C=C\SC(=O)CC`, for which the melting point was in the range of 68 to 70 °C.
In the case of `CCCCCCCCCCCCCCCCCCOc1cccc(NCC(=O)O)c1`, the melting point worked out at 92 °C.
The molecule `COc1ccc(C(=O)c2cc(-c3ccc(Cl)cc3)c(N3CCOCC3)s2)cc1` showed a melting point of 120 °C.
Take `O=C(COc1cccc(CCNC(=O)OCc2ccccc2)c1)Nc1nnn[nH]1`: the melting point lay in the range of 164 to 167 °C.
`COc1cc(C)nc(NC(=O)NS(=O)(=O)c2ccccc2C(O)CF)n1` (centres undefined) had a melting point of 153 to 155 °C.
The value for `CC(C)CN1CCS(=O)(=O)c2sc(S(N)(=O)=O)cc2C1` was 149 to 151 °C.
`CC(C)SC(C)(C)C(=O)O` showed a melting point of 51.5 to 52.5 °C.
`Cc1sc2c(Cl)c(Cl)c(OCC(=O)O)cc2c1C` showed a melting point of 218 to 219 °C.
In the case of `CCCCc1nc(Cl)c(CO)n1Cc1ccc(OCc2ccccc2)cc1`, the melting point lay in the range of 115 to 116 °C.
In turn, `COC(=O)NNC(=O)c1ccc(Cl)cc1` displayed a melting point of 160 °C.
Turning to `CC(C)c1ccc(N(Cc2ccc(N(C)C)cc2)C(=O)C2CCOc3ccc(F)cc32)cc1` (centres undefined), the melting point was 95 to 98 °C.
For `C=CCNc1nc(NCC=C)c2scc(C)c2n1`, the melting point was 77 to 80 °C.
Turning to `Cc1c(F)c(Cl)cc2c1c(=O)c(C(=O)O)cn2C1CC1`, the melting point lay in the range of 258 to 260 °C.
`COc1ccc(CNC(=O)c2ccc3c(c2)c(=O)n(Cc2ccccc2)c(=O)n3C)cc1` registered a melting point of 191 °C.
On to `COC(=O)C(Oc1ccccc1)c1ccc(I)cc1` (centres undefined), for which the melting point lay in the range of 68 to 71 °C.
The result for `CN(C)CC1CCc2cc(NC(=O)c3ccc(-c4ccc(CO)cc4)cc3)ccc2C1` (centres undefined) reads 138 to 139 °C; that for `O=C(Nc1cc(S(=O)(=O)N2CCC(O)C2)sc1Cl)c1cnn2c(C(F)F)cc(-c3ccc(C(F)(F)F)cc3)nc12` (racemic), 274 °C.
As for `CC(=O)Oc1cc(Br)cc2c1OC(C)(C)C2`, the melting point was 76 °C.
Molecule `Cc1cc(SC(C)C)c(NC(=O)CCCSc2nc3c(C)c(Cl)cc(C(C)C)c3o2)c(SC(C)C)n1` came in with a melting point of 141 to 143 °C.
The molecule `COc1ccc(C2=NN(C3CCN(C(=O)N4CCOCC4)CC3)C(=O)[C@H]3CC=CC[C@@H]23)cc1Cl` (relative stereo) came in with a melting point of 185 to 186 °C.
The result for `Cc1oc(-c2ccccc2)nc1CCOc1ccc(C[C@@H](C(=O)O)N2CCN(c3ccccc3)CC2)cc1Br` reads 220 to 222 °C; that for `CC12CCC(C1)C1(C)Oc3ccc(C4(c5ccc(C(=O)O)cc5)OCCO4)cc3C21C` (centres undefined), 234 to 236 °C.
The result for `Cc1cc(O)ccc1-c1c(C=O)sc(-c2ccc(O)cc2)c1C` reads 244 to 247 °C.
In turn, `CN(Cc1cccc(-c2ccc(O)cc2)c1)C(=O)OC(C)(C)C` gave a melting point of 174 °C.
The result for `Cc1cc(-c2cnn3c(C(F)(F)F)cc(-c4ccc(C(F)(F)F)c(F)c4)nc23)ccn1` reads 250 °C; that for `COc1ccc2c(c1)CC(C)(CN1CCC(c3ccccc3)CC1)NC2=O` (centres undefined), 93 to 95 °C.
Turning to `CC(=S)NCC1CN(c2ccc(S(=O)CCF)c(F)c2)C(=O)O1` (centres undefined), the melting point was determined as 161 °C.
The result for `O=C(CCl)Nc1ccc(OCc2nc3ccccc3s2)cc1` reads 196 to 197 °C; that for `COCNC(=O)NC1CCCc2sccc21` (centres undefined), 160 to 162 °C.
The result for `COc1ccc(COC(=O)n2c(S(=O)Cc3ccc(C)cn3)nc3cscc32)cc1` (centres undefined) reads 119 to 120 °C; that for `N#CCc1cnc(Cl)c(Cl)c1`, 72 to 75 °C; that for `CCOC(=O)C(N=C(c1cc(Cl)ccc1N)c1ccccc1F)C(=O)OCC`, 119 °C.
The result for `Cc1c(O)ccc2c1OCC1c3ccccc3OC21` (centres undefined) reads 160 to 162 °C.
Turning to `FC(F)(F)c1nc(-c2ccccc2)c(-c2ccccc2)c(N2CCN(c3ccccn3)CC2)n1`, the melting point is 165 to 167 °C.
The value for `O=C(CCCCC1CCN(Cc2ccccc2)CC1)c1ccc(N2CCCC2)cc1` was 129 to 131 °C.
Molecule `CC(=O)N1CCN=C1c1c(Cl)nc(N)nc1Cl` came in with a melting point of 221 °C.
The molecule `CC(C)(C)C1c2ccccc2CCC1O` (centres undefined) showed a melting point of 104 °C.
Consider `COc1ccc(C=CC(=O)O)cc1-c1cc2c(cc1OCCCCCC(=O)O)C(C)(C)CCC2(C)C`, for which the melting point lay within 166 to 168 °C.
Regarding `FC(F)(F)c1cc(Cl)c(-n2cc(I)nn2)c(Cl)c1`, the melting point fell in the range of 194 to 195 °C.
`N#Cc1c(N2CCc3ccccc3CC2)nc(N)n(N)c1=O` gave a melting point above 200 °C.
Consider `O=C(O)CCc1oc(-c2ccc3c(c2)OCO3)nc1-c1ccc(Cl)cc1`, for which the melting point lay within 199 to 200 °C.
`COc1ccc(CN2CCN(C(=S)C3(C)CCc4c(C)c(O)c(C)c(C)c4O3)CC2)c(OC)c1OC` (centres undefined) gave a melting point of 124 to 125 °C.
`COc1ccc(Sc2ccc(C=[N+]([O-])C(C)(C)C)o2)cc1` showed a melting point of 91.7 °C.
